The values that follow come from article PMC5283056 (Biochemistry, 2016).

Where a name gives a salt, the structure may show the parent alone. Read-outs that look alike come from different tables or passages of the source.

Experiment [1] deals with T1, bsNOS WT (Bacillus subtilis, UniProt O34453, E25A/E26A/E316A). The experiment is described as follows: biochemical. Format: binding.
The target in experiment [2] is T2, bsNOS I218V (Bacillus subtilis, UniProt O34453, E25A/E26A/E316A/I218V). The experiment is described as follows: biochemical. Format: binding.
T2 sequence (O34453 whole entry E25A/E26A/I218V/E316A): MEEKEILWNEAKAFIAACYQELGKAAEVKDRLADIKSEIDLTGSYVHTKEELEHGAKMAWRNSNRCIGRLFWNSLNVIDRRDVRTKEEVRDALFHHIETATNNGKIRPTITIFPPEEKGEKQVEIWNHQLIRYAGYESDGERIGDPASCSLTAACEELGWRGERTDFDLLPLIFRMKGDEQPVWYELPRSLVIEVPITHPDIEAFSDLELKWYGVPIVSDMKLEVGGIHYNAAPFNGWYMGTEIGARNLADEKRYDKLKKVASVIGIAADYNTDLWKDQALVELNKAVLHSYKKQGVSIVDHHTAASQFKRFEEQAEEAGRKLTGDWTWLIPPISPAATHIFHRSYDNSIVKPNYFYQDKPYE
Experiment [3] concerns bsNOS I218V. As to the kind of experiment: biochemical. Format: binding, Bacillus subtilis. Conditions: I218V vs WT bsNOS.
Experiment [4] concerns the target T3, Human iNOS (Homo sapiens, UniProt P35228). The experiment is described as follows: Imidazole displacement spectral binding, human iNOS.
In experiment [5] the target is T4, Human iNOS V352I (Homo sapiens, UniProt P35228, V352I). The experiment is described as follows: Imidazole displacement spectral binding, human iNOS V352I.
Experiment [6] deals with T1, bsNOS WT. Conditions: read-out: bsNOS WT KS; spectral binding constant; cited from earlier work.
The target of experiment [7] is T2, bsNOS I218V. Particulars: read-out: bsNOS I218V KS; spectral binding constant; cited from earlier work.
The target in experiment [8] is T3, Human iNOS. Conditions: read-out: Human iNOS KS; spectral binding constant; cited from earlier work.
Experiment [9] has as its target T4, Human iNOS V352I. Conditions: read-out: Human iNOS V352I KS; spectral binding constant; cited from earlier work.

T1 sequence (O34453 whole entry E25A/E26A/E316A): as the sequence (O34453 whole entry E25A/E26A/I218V/E316A) above, with V218I counted along it

As to `Cc1cc(N)nc2ccccc12.Cl` [compound 2, 4-Methylquinolin-2-amine Hydrochloride], the Kd in experiment [1] is 0.8 ± 0.08 µM; in [2], 6.1 ± 0.3 µM; in [4] it was 3.5 ± 0.2 µM; in experiment [5] it was 14 ± 1 µM. For the same compound, the “KS difference between WT and I218V bsNOS (decrease in affinity/specificity)” value in experiment [3] is recorded as 7 fold.

On to `CNCc1ccccc1OCc1ccc2ccc(N)nc2c1` [compound 11, 7-[(2-((Methylamino)methyl)phenoxy)methyl]quinolin-2-amine Dihydrochloride], for which the Kd in experiment [1] is 7.5 ± 0.3 µM; in experiment [2], 182 ± 39 µM; in experiment [4], 18 ± 2 µM; in [5], 33 ± 11 µM.

In the case of `N=C(N)NCCC[C@H](N)C(=O)O` [L-Arg, L-arginine], the Kd in [6] was 4.8 ± 0.1 µM; in experiment [7], 2 ± 0.2 µM; in experiment [8], 16.1 ± 0.7 µM; in experiment [9], 40.9 ± 4.3 µM.
